Assay results taken from US5068198A, “Liquid single reagent for assays involving confining gels” (Syntex (U.S.A.) Inc., priority 1989, dated 1991).
Where two headings read alike, the source gives them in different places.

Assays:
[1] = tested on: G6PDH; experiment: Inhibition of G6PDH by encapsulated and free Anti-G6PDH, with or without Triton; assay type: biochemical; details: Triton 5%; in words
Description: Anti-G6PDH was encapsulated in liposome. The liposome composition was L-α-dioleoyl lecithin (70%) and L-α-dioleoyl phosphatidyl glycerol (30%).
Enzyme: G6PDH, dissolved in buffer
Free Antibody: Anti-G6PDH, in buffer
Substrate: 0.13M G6P, 0.08M NAD, and
Protocol: 50 μl of enzyme (270 ng) was mixed with 50 μl of free or encapsulated antibody and 0.6 ml Buffer containing (1 mg/ml) with or without 5% Triton. After one hour at ambient temperature, 50 μl of substrate was added together with 0.3 ml buffer.

[2] = tested on: monoclonal anti-theophylline; experiment: Assay for theophylline using encapsulated Theophylline-G6PDH as a single liquid reagent; assay type: biochemical
Description: Theophylline-G6PDH was encapsulated in liposomes (POPC 76%, POPG 4%, and cholesterol 20%) and used in an assay for theophylline. The assay employed the following reagents:
Protocol 0.3 ml of the Reagent dispensed into a Croan cup.

[3] = tested on: Anti-digoxin
Protocol: Reagent: Digoxin-G6PDH encapsulated
in liposomes (POPC 70%, POPG
Anti-digoxin optimized for
response, 0.13M G6P, RSA (20
Diluent: 0.5% Triton, 4 mM NAD, 5mM
Protocol: 50 μl of the reagent was drawn up into a diluter and dispensed with 200 μl of buffer containing RSA (1 mg/ml) into a 1 ml Croan cup. A 50 μl aliquot of the sample was drawn up and dispersed with 700 μl of diluent into the Croan cup. Immediately after sample addition, the entire sample was aspirated into a flow cell and readings were taken at 30° over thirty seconds.

[4] = tested on: Anti-digoxin; remark: listed apart in the source
Description: As a comparison to the assay using a single liquid reagent an assay was run using unencapsulated enzyme conjugate and antibody in separate liquid reagents. The reagent quantities and the final volume of the assay were arranged to be identical to those in the single reagent assay above in Example 3.

[5] = digoxin 0.083 μg/ml, 30°, thirty seconds

Molecule: Triton
- effect of Triton on enzyme activity or extent of inhibition in enzyme by antibody [1]: did not affect

Molecule: Cn1c(=O)c2[nH]cnc2n(C)c1=O [Theophylline, theophylline]
- enzyme activity, Single Reagent ([2]; theophylline 2.5 μg/ml, 30°, thirty second read): 356 Eu
- enzyme activity, Single Reagent ([2]; theophylline 5 μg/ml): 394 Eu
- enzyme activity, Single Reagent ([2]; theophylline 10 μg/ml): 455 Eu
- enzyme activity, Single Reagent ([2]; theophylline 20 μg/ml): 537 Eu
- enzyme activity, Single Reagent ([2]; theophylline 40 μg/ml): 610 Eu

Molecule: C[C@H]1O[C@@H](O[C@H]2[C@@H](O)C[C@H](O[C@H]3[C@@H](O)C[C@H](O[C@H]4CC[C@@]5(C)[C@H](CC[C@@H]6[C@@H]5C[C@@H](O)[C@]5(C)[C@@H](C7=CC(=O)OC7)CC[C@]65O)C4)O[C@@H]3C)O[C@@H]2C)C[C@H](O)[C@@H]1O [Digoxin, digoxin]
- enzyme activity, Single Reagent [3, 5]: 403 EU
- enzyme activity, Single Reagent ([3]; digoxin 0.166 μg/ml): 440 EU
- enzyme activity, Single Reagent ([3]; digoxin 0.333 μg/ml): 511 EU
- enzyme activity, Single Reagent ([3]; digoxin 0.666 μg/ml): 584 EU
- enzyme activity, Single Reagent ([3]; digoxin 1.33 μg/ml): 628 EU
- enzyme activity, Single Reagent ([3]; digoxin 2.66 μg/ml): 653 EU
- enzyme activity, Single Reagent ([3]; digoxin 10.65 μg/ml): 665 EU
- enzyme activity, Two Reagent [4, 5]: 410 EU
- enzyme activity, Two Reagent ([4]; digoxin 0.166 μg/ml): 456 EU
- enzyme activity, Two Reagent ([4]; digoxin 0.333 μg/ml): 518 EU
- enzyme activity, Two Reagent ([4]; digoxin 0.666 μg/ml): 603 EU
- enzyme activity, Two Reagent ([4]; digoxin 1.33 μg/ml): 645 EU
- enzyme activity, Two Reagent ([4]; digoxin 2.66 μg/ml): 678 EU
- enzyme activity, Two Reagent ([4]; digoxin 5.33 μg/ml): 713 EU
- enzyme activity, Two Reagent ([4]; digoxin 10.65 μg/ml): 717 EU
